Type in all cases: physicochemical
The nature of data set [1]: Weight loss of the salts during heating by thermogravimetric analysis (TGA). The note with it: for Weight loss: TGA, heating rate 10° C./min, open pan. The protocol: Weight loss of the salts during heating was determined by thermogravimetric analysis (TGA) thermograms collected on TGA equipment (TA Instruments). Heating rate 10° C./min, 25-300° C., open pan.
Weight loss of each salt of compound (I) during heating was determined by thermogravimetric analysis (TGA) thermograms collected on TGA equipment (TA Instruments). Heating rate 10° C./min, 25-300° C., open pan.

Test in data set [2]: as above
The settings on record: heating rate 10° C./min, 30-250° C., open pan, weight loss over 30-200° C.

The nature of data set [3]: Chemical stability: accelerated stability study of pressed tablets, degradation product A, prediction with ASAPprime software. The settings on record: summary statement. The protocol:
The degradation rate of various salts of compound (I) was determined by measuring the amount of shelf-life determining degradation product 2-[(5-{[1-(methanesulfonyl)piperidin-4-yl]methoxy}-4-oxo-4H-pyran-2-yl)methyl]-2,3-dihydro-1H-isoindol-1 -one (degradation product A) from an accelerated stability study wherein samples were stored at various different temperature and relative humidity conditions. Each sample consisted of a pressed tablet containing a constant amount of the tested salt together with conventional excipients. The predicted increase (Δ %) of the degradation product A after 5 years was calculated with ASAPprime® software using the following parameters: • Bottle volume and material: 100 ml (HDPE HIS) • Desiccant: Silica (1 g) • Tablet amount: 60 • Conditions: 25° C./60% RH

Structures can show the parent of a compound that is named as a salt.

Turning to `CS(=O)(=O)N1CCC(COc2coc(CN3Cc4ccccc4C3)cc2=O)CC1` [Ethanesulfonic acid salt, 2-(isoindolin-2-ylmethyl)-5-((1-(methylsulfonyl)piperidin-4-yl)methoxy)-4H-pyran-4-one], the Weight loss in data set [1] (weight loss over 25-190° C.) is under 0.3%.
As to `CS(=O)(=O)N1CCC(COc2coc(CN3Cc4ccccc4C3)cc2=O)CC1` [hydrobromic acid salt, 2-(isoindolin-2-ylmethyl)-5-((1-(methylsulfonyl)piperidin-4-yl)methoxy)-4H-pyran-4-one], the Weight loss in data set [1] (weight loss over 25-220° C.) stood at 0.1%.
Regarding `O=S(=O)(O)c1ccc2ccccc2c1` [2-Naphthalenesulphonic acid], the Weight loss in data set [1] (weight loss over 25-225° C.) was under 0.1%.
With `CS(=O)(=O)N1CCC(COc2coc(CN3Cc4ccccc4C3)cc2=O)CC1` [1,2-Ethanedisulfonic acid salt, 2-(isoindolin-2-ylmethyl)-5-((1-(methylsulfonyl)piperidin-4-yl)methoxy)-4H-pyran-4-one], the Weight loss in data set [1] (weight loss over 25-100° C.) turned out to be 9.9%.
On to `CS(=O)(=O)N1CCC(COc2coc(CN3Cc4ccccc4C3)cc2=O)CC1` [Hydrochloric acid salt (form 3), 2-(isoindolin-2-ylmethyl)-5-((1-(methylsulfonyl)piperidin-4-yl)methoxy)-4H-pyran-4-one], for which the Weight loss in data set [1] (weight loss over 25-190° C.) stood at 0.5%.
Regarding `CS(=O)(=O)N1CCC(COc2coc(CN3Cc4ccccc4C3)cc2=O)CC1` [Benzenesulfonic acid salt, 2-(isoindolin-2-ylmethyl)-5-((1-(methylsulfonyl)piperidin-4-yl)methoxy)-4H-pyran-4-one], in data set [1] (weight loss over 25-220° C.), the Weight loss turned out to be 0.3%.
Consider `CS(=O)(=O)N1CCC(COc2coc(CN3Cc4ccccc4C3)cc2=O)CC1` [Oxalic acid salt (form 1), 2-(isoindolin-2-ylmethyl)-5-((1-(methylsulfonyl)piperidin-4-yl)methoxy)-4H-pyran-4-one], for which the Weight loss in data set [1] (weight loss over 25-175° C.) came to 0.4%.
Regarding `CS(=O)(=O)N1CCC(COc2coc(CN3Cc4ccccc4C3)cc2=O)CC1` [Maleic acid salt (form 3), 2-(isoindolin-2-ylmethyl)-5-((1-(methylsulfonyl)piperidin-4-yl)methoxy)-4H-pyran-4-one], in data set [1] (weight loss over 25-120° C.), the Weight loss is reported as 3.2%.
Regarding `CS(=O)(=O)N1CCC(COc2coc(CN3Cc4ccccc4C3)cc2=O)CC1` [Nitric acid salt, 2-(isoindolin-2-ylmethyl)-5-((1-(methylsulfonyl)piperidin-4-yl)methoxy)-4H-pyran-4-one], the Weight loss in data set [1] (weight loss over 25-205° C.) was found to be 0.9%.
Take `CS(=O)(=O)N1CCC(COc2coc(CN3Cc4ccccc4C3)cc2=O)CC1` [Sulfuric acid salt (form 2), 2-(isoindolin-2-ylmethyl)-5-((1-(methylsulfonyl)piperidin-4-yl)methoxy)-4H-pyran-4-one]: in data set [1] (weight loss over 25-100° C.), the Weight loss worked out at 8%.
With `CS(=O)(=O)N1CCC(COc2coc(CN3Cc4ccccc4C3)cc2=O)CC1` [p-toluenesulfonic acid salt, 2-(isoindolin-2-ylmethyl)-5-((1-(methylsulfonyl)piperidin-4-yl)methoxy)-4H-pyran-4-one], the “weight loss during heating (in words)” value in data set [1] (crystalline salt, summary statement) is recorded as “low weight loss during heating”. Besides, the Weight loss in data set [2] came out at 0.2%. For the same compound, in data set [3], the “solid-state stability in pharmaceutical dosage forms such as tablets (in words)” value is recorded as “excellent sold-state stability”.
As to `CS(=O)(=O)N1CCC(COc2coc(CN3Cc4ccccc4C3)cc2=O)CC1` [Methanesulfonic acid salt, 2-(isoindolin-2-ylmethyl)-5-((1-(methylsulfonyl)piperidin-4-yl)methoxy)-4H-pyran-4-one], in data set [1] (weight loss over 25-75° C.), the Weight loss is on record as 5%.
Take `O=S(=O)(O)c1cccc2c(S(=O)(=O)O)cccc12` [1,5-Naphthalenedisulfonic acid]: the Weight loss in data set [1] (weight loss over 25-220° C.) is 0.3%.

Source of the values: patent US20240158377A1, “NOVEL SALT FORMS OF A 4H-PYRAN-4-ONE STRUCTURED CYP11A1 INHIBITOR” (Orion Corporation, priority 2021, published 2024).
